Entries after “also recorded” stand apart in the source; their conditions may differ.
Legend:
[1] = tested on: TGF-β-induced increases in fibronectin and thrombospondin; details: cited from earlier work
[2] = patients with sleep apnea; cited from earlier work
[3] = patients suffering from Psoriasis; seen as early as 4 weeks, persisted for 12 weeks; cited from earlier work
[4] = tested on: influx of neutrophils to the lung in LPS-challenged rats; assay: Rat LPS neutrophilia model; type: in vivo; details: LPS aerosol 100 ug/ml 15 min, lavage 4 hours later; in at least one of the range of conditions tested
In short: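 Rats were dosed intratracheally (200 µl, suspension, under isoflurane) 15 min–24 h before 15 min exposure to LPS aerosol (100 µg/ml). Four hours later, bronchoalveolar lavage cells were stained and counted differentially. Results are % neutrophil inhibition versus untreated controls at a stated dose and pretreatment time.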

[5] = tested on: circulating levels of TNFα; details: mice; cited from earlier work

COc1nccc(-c2c(-c3ccc(F)cc3)ncn2C2CCNCC2)n1 [SB-242235]
TGF-β-induced increases in fibronectin and thrombospondin [1]: inhibited

etanercept
sleepiness [2]: decreases in sleepiness
symptoms of depression (HAMD and BDI score) and fatigue [3]: demonstrated efficacy; also recorded: reduce symptoms of depression

Cc1ccc(C(=O)Nc2ccc(C)c(-c3nc(OC(C)C)nc4c3CNC(=O)N4c3c(F)cccc3F)c2)cc1F [Example 26, N-(3-{8-(2,6-difluorophenyl)-2-[(1-methylethyl)oxy]-7-oxo-5,6,7,8-tetrahydropyrimido[4,5-d]pyrimidin-4-yl}-4-methylphenyl)-3-fluoro-4-methylbenzamide]
melting point: 253.5 to 255.4 °C
inhibition of neutrophilia [4]: inactive

Cc1ccc(C(=O)NCc2ccccc2)cc1-c1nc(N(C)CCCN(C)C)nc2c1CNC(=O)N2c1c(F)cccc1F [Example 17, 3-{8-(2,6-Difluorophenyl)-2-[[3-(dimethylamino)propyl](methyl)amino]-7-oxo-5,6,7,8-tetrahydropyrimido[4,5-d]pyrimidin-4-yl}-4-methyl-N-(phenylmethyl)benzamide]
melting point: 124 to 127 °C
inhibition of neutrophilia [4]: statistically nonsignificant inhibition

CNC(=O)c1ccc(C)c(-c2nc(NCCCN(C)C)nc3c2CNC(=O)N3c2c(F)cccc2F)c1 [Example 166, 3-(8-(2,6-difluorophenyl)-2-{[3-(dimethylamino)propyl]amino}-7-oxo-5,6,7,8-tetrahydropyrimido[4,5-d]pyrimidin-4-yl)-N,4-dimethylbenzamide]
melting point: 164 to 167 °C (dec.)
inhibition of neutrophilia [4]: statistically nonsignificant inhibition

CC(NC(C)(C)C)C(=O)c1cccc(Cl)c1 (stereo not shown) [bupropion]
circulating levels of TNFα [5]: reduce circulating levels of TNFα

From patent publication US20090318424A1, “NOVEL COMPOUNDS” (priority 2006, published 2009)
